In patent US8309558B2, “Compounds for the treatment of hepatitis C” (Bristol-Myers Squibb Company, priority 2008, dated 2012) one finds EC50 data, which are given here for 48 compounds.

One test deals with HCV replicon cells. The test is described as follows: HCV replicon FRET / luciferase assay (96-well plates). It counts as cell-based. The settings on record: Hepatitis C virus, 24 h, Table 1d (class symbols); HCV replicon; read-out: EC50. An excerpt:
FRET Assay Preparation. To perform the HCV FRET screening assay, 96-well cell culture plates were used. The FRET peptide (Anaspec, Inc.) (Taliani et al., Anal. Biochem. 1996, 240, 60-67) contains a fluorescence donor, EDANS, near one end of the peptide and an acceptor, DABCYL, near the other end. The fluorescence of the peptide is quenched by […] resonance energy transfer (RET) between the donor and the acceptor, but as the NS3 protease cleaves the peptide the products are released from RET quenching and the fluorescence of the donor becomes apparent. The assay reagent was made as follows: 5× cell Luciferase cell culture lysis reagent from Promega (#E153A) diluted to 1× with dH2O, NaCl added to 150 mM final, the FRET peptide diluted to 20 μM final from a 2 mM stock.
To prepare plates, HCV replicon cells, with or without a Renilla luciferase reporter gene, were trypsinized and placed into each well of a 96-well plate with titrated test compounds added in columns 3 through 12; columns 1 and 2 contained a control compound (HCV protease inhibitor), and the bottom row contained cells without compound. The plates were then placed in a CO2 incubator at 37° C.
Assays. Subsequent to addition of the test compounds described above (FRET Assay Preparation), at various times the plate was removed and Alamar blue solution (Trek Diagnostics, #00-100) was added per well as a measure of cellular toxicity. After reading in a Cytoflour 4000 instrument (PE Biosystems), plates were rinsed with PBS and then used for FRET assay by the addition of 30 ul of the FRET peptide assay reagent described above (FRET Assay Preparation) per well. The plate was then placed into the Cytoflour 4000 instrument which had been set to 340 excite/490 emission, automatic mode for 20 cycles and the plate read in a kinetic mode. Typically, the signal to noise using an endpoint analysis after the reads was at least three-fold. Alternatively, after Alamar blue reading, plates were rinsed with PBS, 50 ul of DMEM (high glucose) without phenol red was added and plates were then used for luciferase assay using the Promega Dual-Glo Luciferase Assay System.
Compound analysis was determined by quantification of the relative HCV replicon inhibition and the relative cytotoxicity values. To calculate cytoxicity values, the average Alamar Blue fluorescence signals from the control wells were set as 100% non-toxic. The individual signals in each of the compound test wells were then divided by the average control signal and multiplied by 100% to determine […]. To calculate the HCV replicon inhibition values, an average background value was obtained from the two wells containing the highest amount of HCV protease inhibitor at the end of the assay period. These numbers were similar to those obtained from naïve Huh-7 cells.
The background numbers were then subtracted from the average signal obtained from the control wells and this number was used as 100% activity. The individual signals in each of the compound test wells were then divided by the averaged control values after background subtraction and multiplied by 100% to determine percent activity. EC50 values for a protease inhibitor titration were calculated as the concentration which caused a 50% reduction in FRET or luciferase activity. The two numbers generated for the compound plate, percent cytoxicity and percent activity were used to determine compounds of interest for further analysis.
(Replicon systems follow genome replication, usually without infectious particles.)
As for `CNC(=O)c1c(-c2ccc(F)cc2)oc2ccc(-c3cc(C(=O)NC(C)(C)C)ccc3OC)c(F)c12`, the EC50 (commonly the concentration that produces a half-maximal response) was 1 to 250 nM. Still for that read-out and setting: the figure for `CNC(=O)c1c(-c2ccc(F)cc2)oc2ccc(-c3cc(C(=O)NC4(c5ccncn5)CC4)ccc3C)cc12` [drawing 684] is 1 to 250 nM; for `CNC(=O)c1c(-c2ccc(F)cc2)oc2ccc(-c3cc(C(=O)NC4(c5ncc(F)cn5)CC4)ccc3C)c(F)c12` it is 1 to 250 nM. The same measure, in the same setting: the figure for `CNC(=O)c1c(-c2ccc(F)cc2)oc2ccc(-c3cc(C(=O)NC4(c5ccccn5)CC4)c(OCC4CCOCC4)cc3C)cc12` is 1 to 250 nM; for `CNC(=O)c1c(-c2ccc(F)cc2)oc2ccc(-c3cc(C(=O)NC4(c5ccnnc5)CC4)c(OC)cc3C)c(F)c12` [drawing 701] it is 1 to 250 nM; for `CNC(=O)c1c(-c2ccc(F)cc2)oc2ccc(-c3cc(C(=O)NC4(c5ccccn5)CC4)c(OCC4CCCCO4)cc3C)cc12` (stereo not drawn) it is 1 to 250 nM.

For the compound `CNC(=O)c1c(-c2ccc(F)cc2)oc2ccc(-c3cc(C(=O)NC4(c5nc(C)cc(C)n5)CC4)ccc3C)c(F)c12`, the EC50 fell in the range of 1 to 250 nM. Still for that read-out and setting: the figure for `CNC(=O)c1c(-c2ccc(F)cc2)oc2ccc(-c3cc(C(=O)NC4(c5ccccn5)CC4)c(OC4CCC4)cc3C)cc12` is 1 to 250 nM; for `CNC(=O)c1c(-c2ccc(F)cc2)oc2ccc(-c3cc(C(=O)NC4(c5nc(C)cc(C)n5)CC4)c(OC)cc3C)c(F)c12` it is 1 to 250 nM; for `CNC(=O)c1c(-c2ccc(F)cc2)oc2ccc(-c3cc(C(=O)NC4(c5ccccn5)CC4)c(OCC4CCOC4)cc3C)cc12` (stereo not drawn) it is 1 to 250 nM. Regarding `CNC(=O)c1c(-c2ccc(F)cc2)oc2ccc(-c3cc(C(=O)NC(C)(C)C)c(OC)cc3OCC(N)=O)cc12`, the EC50 is 1 to 250 nM. Take `CNC(=O)c1c(-c2ccc(F)cc2)oc2ccc(-c3cc(C(=O)NC4(c5ccncn5)CC4)ccc3C)c(F)c12`: the EC50 is 1 to 250 nM.

In the case of `CNC(=O)c1c(-c2ccc(F)cc2)oc2ccc(-c3cc(C(=O)NC4(c5ccccn5)CC4)c(OC4CCCCC4)cc3C)cc12`, the EC50 was in the range of 1 to 250 nM. Still for that read-out and setting: the figure for `CNC(=O)c1c(-c2ccc(F)cc2)oc2ccc(-c3cc(C(=O)NC4(c5ccnnc5)CC4)c(OC)cc3C)cc12` is 1 to 250 nM; for `CNC(=O)c1c(-c2ccc(F)cc2)oc2ccc(-c3cc(C(=O)NC4(c5ccccn5)CC4)c(OCCCOC)cc3C)cc12` it is 1 to 250 nM; for `CNC(=O)c1c(-c2ccc(F)cc2)oc2ccc(-c3cc(C(=O)NC4(c5ccccn5)CC4)c(OCc4ccccc4Cl)cc3C)cc12` it is 1 to 250 nM. Still for that read-out and setting: the figure for `CNC(=O)c1c(-c2ccc(F)cc2)oc2ccc(-c3cc(C(=O)NC4(c5ncc(C)cn5)CC4)ccc3C)cc12` is 1 to 250 nM; for `CNC(=O)c1c(-c2ccc(F)cc2)oc2ccc(-c3cc(C(=O)NC4(c5ncc(F)cn5)CC4)c(OC)cc3C)cc12` it is 1 to 250 nM. As for `CNC(=O)c1c(-c2ccc(F)cc2)oc2ccc(-c3cc(C(=O)NC4(c5cnccn5)CC4)c(OC)cc3C)c(F)c12`, the EC50 was in the range of 1 to 250 nM.

With `CNC(=O)c1c(-c2ccc(F)cc2)oc2ccc(-c3cc(C(=O)NC4(c5nccc(C)n5)CC4)c(OC)cc3C)c(F)c12`, the EC50 lay in the range of 1 to 250 nM.

On to `CNC(=O)c1c(-c2ccc(F)cc2)oc2ccc(-c3cc(C(=O)NC4(c5ccnnc5)CC4)ccc3C)c(F)c12`, for which the EC50 lay within 1 to 250 nM. On the same count and under the same terms, the same measure for `CNC(=O)c1c(-c2ccc(F)cc2)oc2ccc(-c3cc(C(=O)NC4(c5ncc(F)cn5)CC4)c(OC)cc3C)c(F)c12` [drawing 689]: 1 to 250 nM; for `CNC(=O)c1c(-c2ccc(F)cc2)oc2ccc(-c3cc(C(=O)NC4(c5cccnn5)CC4)c(OC)cc3C)cc12`: 1 to 250 nM. As to `CNC(=O)c1c(-c2ccc(F)cc2)oc2ccc(-c3cc(C(=O)NC4(C(=O)Nc5nc(C)no5)CC4)c(OC)cc3C)cc12`, the EC50 is 1 to 250 nM. Consider `CNC(=O)c1c(-c2ccc(F)cc2)oc2ccc(-c3cc(C(=O)NC4(c5cnn(C)c5)CC4)ccc3C)cc12`, for which the EC50 lay within 1 to 250 nM. The same measure, in the same setting: the same measure for `CNC(=O)c1c(-c2ccc(F)cc2)oc2ccc(-c3cc(C(=O)NC4(c5ccncn5)CC4)c(OC)cc3C)c(F)c12`: 1 to 250 nM. Still for that read-out and setting: the figure for `CNC(=O)c1c(-c2ccc(F)cc2)oc2ccc(-c3cc(C(=O)NC4(c5ccccn5)CC4)c(OCc4cccc(Cl)c4)cc3C)cc12` is 1 to 250 nM; for `CNC(=O)c1c(-c2ccc(F)cc2)oc2ccc(-c3cc(C(=O)NC4(c5ccccn5)CC4)c(OCC(=O)OC)cc3C)cc12` [drawing 642] it is 250 to 1000 nM. In the case of `CNC(=O)c1c(-c2ccc(F)cc2)oc2ccc(-c3cc(C(=O)NC4(c5ccncn5)CC4)c(OC)cc3C)cc12`, the EC50 lay within 1 to 250 nM. Same read-out and setting: the same measure for `CNC(=O)c1c(-c2ccc(F)cc2)oc2ccc(-c3cc(C(=O)NC4(c5cccnn5)CC4)ccc3C)c(F)c12`: 1 to 250 nM; for `CNC(=O)c1c(-c2ccc(F)cc2)oc2ccc(-c3cc(C(=O)NC4(c5cncnc5)CC4)c(OC)cc3C)cc12`: 1 to 250 nM. Take `CNC(=O)c1c(-c2ccc(F)cc2)oc2ccc(-c3cc(C(=O)NC4(c5cccnn5)CC4)ccc3C)cc12`: the EC50 lay within 1 to 250 nM. On the same count and under the same terms, the same measure for `CNC(=O)c1c(-c2ccc(F)cc2)oc2ccc(-c3cc(C(=O)NC4(c5ccccn5)CC4)c(OCCn4ccnc4)cc3C)cc12`: 1 to 250 nM; for `CNC(=O)c1c(-c2ccc(F)cc2)oc2ccc(-c3cc(C(=O)NC4(c5ncc(C)cn5)CC4)c(OC)cc3C)cc12`: 1 to 250 nM.

The same test, now with this note: Hepatitis C virus, 24 h, second table titled Table 1d (numbers); HCV replicon; read-out: EC50.
Take `CNC(=O)c1c(-c2ccc(F)cc2)oc2ccc(-c3cc(C(=O)NC4(c5ncc(F)cn5)CC4)c(OC)cc3C)c(F)c12` [drawing 714]: the EC50 came out at 10 nM.

Regarding `CNC(=O)c1c(-c2ccc(F)cc2)oc2ccc(-c3cc(C(=O)NC4(c5ccccn5)CC4)c(OCC(=O)OC)cc3C)cc12` [drawing 710], the EC50 was 210 nM. Same read-out and setting: the figure for `CNC(=O)c1c(-c2ccc(F)cc2)oc2ccc(-c3cc(C(=O)NC4(c5ccnnc5)CC4)c(OC)cc3C)c(F)c12` [drawing 715] is 56 nM.

Still in this test, the particulars now being: Hepatitis C virus, Table 1b; HCV replicon; read-out: EC50.
As for `CNC(=O)c1c(-c2ccc(F)cc2)oc2ccc(-c3ccc(CCC(C)C)c(C(=O)NCC(C)C)c3)cc12`, the EC50 was over 10000 nM. On the same count and under the same terms, the figure for `CNC(=O)c1c(-c2ccc(F)cc2)oc2ccc(-c3ccc(-c4ccccc4CO)c(C(=O)NCC(C)C)c3)cc12` is under 250 nM; for `CNC(=O)c1c(-c2ccc(F)cc2)oc2ccc(-c3cc(C(=O)NC4(c5nc(C)no5)CC4)ccc3C)cc12` [drawing 478] it is under 250 nM. Same read-out and setting: the same measure for `CCOc1ccc(C(=O)NCC(C)C)cc1-c1ccc2oc(-c3ccc(F)cc3)c(C(=O)NC)c2c1`: under 250 nM; for `CNC(=O)c1c(-c2ccc(F)cc2)oc2cc(NS(C)(=O)=O)c(/C=C/C(=O)OC(C)(C)C)cc12`: 1000 to 10000 nM; for `CCNC(=O)c1cc(-c2ccc3oc(-c4ccc(F)cc4)c(C(=O)NC)c3c2F)c(C)cc1OC`: under 250 nM. As to `CNC(=O)c1c(-c2ccc(F)cc2)oc2ccc(-c3ccc(-c4ccccc4Cl)c(C(=O)NC4(c5ccccn5)CC4)c3)cc12`, the EC50 is under 250 nM. Same read-out and setting: the same measure for `CNC(=O)c1c(-c2ccc(F)cc2)oc2ccc(-c3cccc(C(=O)NC(C)(C)c4ccccn4)c3)cc12`: under 250 nM; for `CNC(=O)c1c(-c2ccc(F)cc2)oc2ccc(-c3cc(C(=O)NC4(c5ncc(C)s5)CC4)c(OC)cc3C)cc12`: under 250 nM. On the same count and under the same terms, the same measure for `CNC(=O)c1c(-c2ccc(F)cc2)oc2ccc(-c3cc(C(=O)NC4(c5noc(C)n5)CC4)c(OC)cc3C)cc12`: under 250 nM; for `CNC(=O)c1c(-c2ccc(F)cc2)oc2ccc(-c3cc(C(=O)OC)c(OC)cc3OCC(N)=O)cc12`: 1000 to 10000 nM.
